Marks after values point to notes of the source that are not given here.
How the values were obtained:
[1] = test system: advanced solid tumors (HPV-positive tumors); assay: Phase 1 open-label clinical trial of Compound 1; type: in vivo, human
Excerpt: This study is a Phase 1, open-label, dose-finding study for Compound 1 (see Table 1, supra). Eligible participants enrolled will receive Compound 1 as an oral tablet (50-mg, 100-mg, or 400-mg) during 21-day or 28-day cycles until disease progression, unacceptable toxicity, death, withdrawal of consent, or any other reason. Continuous treatment administration may be once daily (QD) or twice daily (BID).
Following a dose escalation study to identify a pharmacological active dose, this trial will enroll up to 60 participants with HPV-positive tumors at 1 or more pharmacologically active dose (PAD) doses to further evaluate safety, efficacy, PK, and pharmacodynamic effects. A maximum of 20 participants may be enrolled per dose level. Participants must have HPV-positive tumors as determined by a local laboratory using p16 IHC, polymerase chain reaction methods, or other locally-available method to detect HPV.
Participants are eligible to be included in the study only if all of the following criteria apply: • 1. Male and female participants must be ≥ 18 years of age at the time of signing the ICF. • 2. Ability to comprehend and willingness to sign an ICF. • 3. Must be willing and able to conform to and comply with all Protocol requirements, including all scheduled visits, Protocol procedures, and the ability to swallow oral medication. • 4. Histologically confirmed advanced solid tumors with measurable lesions (per RECIST v1.1 or RANO for primary brain tumors) that are considered nonamenable to surgery or other curative treatments or procedures. […] Participants must have disease progression after treatment with available therapies that are known to confer clinical benefit or who are intolerant to or ineligible for standard treatment. • 6. Willingness to undergo a tumor biopsy to obtain tumor tissue. • 7. Eastern Cooperative Oncology Group performance status score of 0 or 1. • 8. Life expectancy > 12 weeks. • 9. Willingness to avoid pregnancy or fathering children. • 10. For the cohort participating in the extension to participants with HPV-positive solid tumors: any HPV-positive solid tumor which has received prior standard therapy.
Adult patients (≥18 years) with advanced solid tumors were enrolled into this open-label study. Patients had disease progression after standard available therapy, or were intolerant of, or ineligible for standard treatment. Measureable disease was required. A modified 3+3 dose escalation design was employed, followed by dose expansions. The primary endpoints were safety and tolerability of Compound 1, identification of a pharmacologically active dose and/or maximum tolerated dose, and confirmation of the recommended Phase 2 dose. Secondary endpoints included PK, pharmacodynamics, and efficacy as assessed by investigator-determined objective response and disease control rates (complete response (CR), partial response (PR), or stable disease (SD)).
Patients that were confirmed to have HPV+ or confirmed to be HPV- are indicated below. Patients of unknown HPV status are also indicated.

[2] = target: T1, PD-⅟PD-L1 (recombinant human PD-L1 protein and human PD-1 protein) (Homo sapiens, UniProt Q9NZQ7); assay: Homogeneous Time-Resolved Fluorescence (HTRF) PD-1/PD-L1 binding assay; details: 3 nM PD1, 10 nM PD-L1, 25° C., PBS pH 7.4
T1 construct: Recombinant human PD-L1 protein (19-238) with a His-tag at the C-terminus; purchased AcroBiosystems PD1-H5229 (PD-L1); PD1-H5257 (PD-1)
T1 sequence (Q9NZQ7 19-238): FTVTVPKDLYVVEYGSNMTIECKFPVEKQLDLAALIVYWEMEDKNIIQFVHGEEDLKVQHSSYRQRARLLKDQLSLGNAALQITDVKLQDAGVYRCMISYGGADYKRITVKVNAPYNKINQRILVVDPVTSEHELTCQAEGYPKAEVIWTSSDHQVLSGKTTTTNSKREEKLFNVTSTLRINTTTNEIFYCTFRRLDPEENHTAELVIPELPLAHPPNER

[3] = test system: select advanced solid tumors (HPV+ carcinomas); assay: Phase 1 open-label clinical trial of Compound 30; type: in vivo, human; set-up: key: complete response (CR); partial response (PR); stable disease (SD); progressive disease (PD)
Excerpt: Two open-label, nonrandomized, global multicenter Phase 1 studies in participants with select advanced solid tumors are being conducted for Compounds 24 and 30 in Table 1 supra. In addition to the primary endpoint of determining safety, tolerability, PAD and/or maximum tolerated dose (MTD) of each compound, the studies are exploring preliminary efficacy (complete response (CR), partial response (PR), stable disease (SD), or progressive disease (PD)) in participants with select advanced cancers, including virally mediated tumors such as HPV+ carcinomas. HPV+ tumors can be determined by a local laboratory using p16 IHC, polymerase chain reaction methods, or other locally-available method to detect HPV. Results for patients having solid tumors whose HPV+ status was confirmed, suspected or negative are shown below for Compound 24 and Compound 30 in Tables 4 and 5, respectively.

[4] = Anal, Confirmed HPV+, 400 mg BID
[5] = Anal, Total (all HPV status), 400 mg BID
[6] = Anal, Unknown HPV status, 400 mg BID
[7] = Cervical, Confirmed HPV+, 400 mg BID
[8] = Cervical, Total (all HPV status), 400 mg BID
[9] = Total of tumor types, Confirmed HPV+
[10] = Total of tumor types, Total (all HPV status)
[11] = Total of tumor types, Unknown HPV status

Cc1c(Nc2nccc3cc(CN4CC[C@@H](O)C4)cnc23)cccc1-c1cccc(-c2nc3cc(CN4CC[C@@H](C(=O)O)C4)cc(C#N)c3o2)c1C [Compound 1, (R)-1-((7-cyano-2-(3′-(3-(((R)-3-hydroxypyrrolidin-1-yl)methyl)-1,7-naphthyridin-8-ylamino)-2,2′-dimethylbiphenyl-3-yl)benzo[d]oxazol-5-yl)methyl)pyrrolidine-3-carboxylic acid]
ORR based on PR or CR ([1]; 14 evaluable patients, 400 mg BID or 800 mg BID, factoring in responses in patients with unknown HPV status): about 28.6% | number of patients with PD [1, 4]: 1 | number of patients with SD [1, 4]: 1 | number of patients with PR/CR ([1]; Anal, Confirmed HPV+, patient received 800 mg BID): 1^a | number of patients with PD [1, 5]: 3 | number of patients with SD [1, 5]: 2 | number of patients with PR/CR ([1]; Anal, Total (all HPV status), 400 or 800 mg BID): 3 | number of patients with PD [1, 6]: 2 | number of patients with SD [1, 6]: 1 | number of patients with PR/CR ([1]; Anal, Unknown HPV status, 1 out of 2 patients received 800 mg BID): 2^b | number of patients with PD [1, 7]: 2 | number of patients with SD [1, 7]: 1 | number of patients with PD [1, 8]: 2 | number of patients with SD [1, 8]: 1 | number of patients with PD ([1]; HNSCC, Confirmed HPV-, patient received 800 mg BID): 1^a | number of patients with PD ([1]; HNSCC, Total (all HPV status)): 1 | number of patients with SD ([1]; Penile, Confirmed HPV+, 400 mg BID): 1 | number of patients with SD ([1]; Penile, Total (all HPV status), 400 mg BID): 1 | number of patients with PD [1, 9]: 3 | number of patients with PR/CR [1, 9]: 2 | number of patients with SD [1, 9]: 3 | number of patients with PD ([1]; Total of tumor types, Confirmed HPV-): 1 | number of patients with PD [1, 10]: 6 | number of patients with PR/CR [1, 10]: 4 | number of patients with SD [1, 10]: 4 | number of patients with PD [1, 11]: 2 | number of patients with PR/CR [1, 11]: 2 | number of patients with SD [1, 11]: 1 | number of patients with PR/CR ([1]; Vaginal, Confirmed HPV+, 400 mg BID): 1 | number of patients with PR/CR ([1]; Vaginal, Total (all HPV status), 400 mg BID): 1

Cn1c(C(=O)Nc2cccc(-c3cccc(NC(=O)c4nc5c(n4C)CCN(CCC46CCC(C(=O)O)(CC4)C6)C5)c3Cl)c2Cl)nc2c1CCN(CCC13CCC(C(=O)O)(CC1)C3)C2 [Compound 30, 4,4′-(((((2,2′-dichloro-[1,1′-bipheiryl]-3,3′-diyl)bis(azanediyl))bis(carbonyl))bis(1-methyl-1,4,6,7-tetrahydro-5H-imidazo[4,5-c]pyridine-2,5-diyl))bis(ethane-2,1-diyl))bis(bicyclo[2.2.1]heptane-1-carboxylic acid)]
IC50 [2]: < 10 nM | Best Overall Response ([3]; Patient 1, 300 mg BID, Cervical cancer (SCC), p16 positive): PR | Best Overall Response ([3]; Patient 2, 300 mg BID, Nasopharyngeal (SCC), p16 negative): SD | Best Overall Response ([3]; Patient 3, 300 mg BID, Cervical cancer (SCC), p16 positive): SD | Best Overall Response ([3]; Patient 4, 400 mg BID, Cervical cancer (SCC), p16 positive): PD | Best Overall Response ([3]; Patient 5, 400 mg BID, Nasopharyngeal (SCC), HPV/p16 status Not determined): SD | Best Overall Response ([3]; Patient 6, 400 mg BID, Cervical cancer (SCC), Positive due to HSIL): SD | Best Overall Response ([3]; Patient 7, 400 mg BID, Acinic cell parotid gland carcinoma, HPV/p16 status Not determined): PD | Best Overall Response ([3]; Patient 8, 400 mg BID, Cervical cancer (adenosquamous), p16 positive): PR | Best Overall Response ([3]; Patient 9, 600 mg QD, Cervical cancer (SCC), p16 positive): PD | Best Overall Response ([3]; Patient 10, 600 mg QD, Cervical cancer (SCC and adenocarcinoma), HPV/p16 status Not determined): PD | Best Overall Response ([3]; Patient 11, 600 mg BID, Cervical cancer (SCC), p16 positive): PD | Best Overall Response ([3]; Patient 12, 600 mg BID, Penile cancer (SCC), p16 positive): SD | Best Overall Response ([3]; Patient 13, 200 mg BID, Anal canal (SCC), HPV/p16 status Not determined): PD

Reference: patent US20230149409A1, “TREATMENT OF HUMAN PAPILLOMAVIRUS-ASSOCIATED CANCERS BY PD-L1 INHIBITORS” (priority 2021, published 2023)
